We go through three compounds from patent US20230203485A1, “METHODS FOR MODULATING MHC-I EXPRESSION AND IMMUNOTHERAPY USES THEREOF” (Dana-Farber Cancer Institute, Inc., priority 2020, published 2023).

The test system of experiment [1] is HLA-I-bound peptidomes of MCC-301 cells. As to the kind of experiment: HLA-I-bound immunopeptidome of USP7 inhibitor treated MCC-301 cells (TMT LC-MS/MS). It is filed as cell-based, human. As for the experimental part:
Up to 40 million or 0.2 g of MCC cells were immunoprecipitated. Briefly, MCC cells were harvested and lysed in ice-cold lysis buffer containing […] (pH 8.0), 1 mM EDTA (pH 8.0), 0.1M sodium chloride, Triton X-100, 0.06M octyl β-d-glucopyranoside, 100 U/mL DNAse I, 1 mM phenylmethanesulfonyl fluoride (all from Sigma Aldrich), and protease inhibitor cocktail (Roche Diagnostics). Cell lysate was centrifuged at 12,700 rpm at 4° C. for 22 min. Lysate supernatant was coupled with Gammabind Plus sepharose beads (GE Healthcare) and incubated with 10 μg of HLA-I antibody (Clone W6/32, Santa Cruz Biotechnologies) at 4° C. under rotary agitation for 3 h. After incubation, the lysate-bead-antibody mixture was briefly centrifuged and the supernatant was discarded. Beads were washed with lysis buffer, consisting of wash buffer containing 40 mM Tris (pH 8.0), 1 mM EDTA (pH 8.0), 0.1M sodium chloride, 0.06M octyl β-d-glucopyranoside, and 20 mM Tris buffer, without protease inhibitors. Gel loading tips (Fisherbrand) were used to remove as much fluid from beads as possible. Peptides of up to three immunoprecipitations were combined, acid eluted, and analyzed using LC/MS-MS. Briefly, peptides were resuspended in 3% acetonitrile with 5% formic acid and loaded onto an analytical column (20-30 cm with 1.9 μm C18 Reprosil beads, Dr. Maisch HPLC GmbH); packed in-house). Peptides were eluted in a 6-30% gradient (EasyLC 1000 or 1200, Thermo Fisher Scientific) and analyzed on a QExactive Plus, Fusion Lumos, or Orbitrap Exploris 480 (Thermo Fisher Scientific). For Lumos measurements, peptides were also subjected to fragmentation if they were singly charged. For Orbitrap Exploris measurements (2 immunoprecipitations pooled, +/−IFN-γ, FIG. 3) and detection of the large T antigen peptide (3 immunoprecipitations of the MCC-367 cell line treated with IFN-γ) peptides were further fractionated using stage tip basic reverse phase separation with 2 punches of SDB-XC material (Empore 3M) and increasing concentrations of acetonitrile (5%, 10% and 30% in 0.1% NH4OH, pH 10). Fractions were analyzed on a Fusion Lumos or Orbitrap Exploris 480 equipped with a FAIMSpro interface. […]
Mass spectra were interpreted using Spectrum Mill software package v7.1 pre-Release (Broad Institute, Cambridge, Mass.). […] MS/MS spectra were searched against a protein sequence database that contained 90,904 entries, including all UCSC Genome Browser genes with hg19 annotation of the genome and its protein coding transcripts (52,788 entries), common human virus sequences (30,181 entries), recurrently mutated proteins observed in tumors from 26 tissues (4,595 entries), 264 common laboratory contaminants as well as protein sequences containing somatic mutations detected in MCC cell lines (3,076 entries). […]

For the next experiment, the system named is surface HLA class I. The experiment is described as follows: USP7 inhibitor treatment of MCC lines, surface HLA-I by flow cytometry. The class given is cell-based, human. The note with it: 3 days.
For experiment [2], the system named is MKL-1 control or p53 KO cells. The experiment is described as follows: Cell cycle analysis (EdU/DAPI flow cytometry). It is filed as cell-based, human. To be noted: MKL-1 TP53-WT and TP53-KO, 100 nM, three days. As for the experimental part: 1 million MKL-1 control or p53 KO cells were plated and treated with DMSO, XL177A (100 nM) or XL177B (100 nM) for three days. During the last hour of the three-day treatment, the cells were pulsed with 10 μM EdU nucleotide. The cells were collected by centrifugation, treated with Accutase™ (Stem Cell Technologies) to break apart clumps, washed with PBS and fixed using 4% Formaldehyde solution in PBS at Room temperature for 15 mins. Cells were washed with 1% BSA in PBS and resuspended in 70% ice cold ethanol and incubated at −20° C. overnight for additional fixing and permeabilization. The cells were stored in 70% ethanol at −20° C. until the day the data was acquired. On the day of data acquisition, the cells were collected by centrifugation and washed twice with PBS. The incorporated EdU in the cells were labeled with a CLICK reaction cocktail (1 mM CuSO4, 100 μM THPTA, 100 mM sodium ascorbate, and 2.2 μM Alexa 647 azide in PBS) at room temperature with rocking for 30 minutes. The samples were then washed with 1% BSA in PBS once followed by two washes with PBS and incubated with a 1 μg/ml DAPI, 100 ng/ml RNase A solution for one hour at Room temperature to stain the DNA. The samples were then passed through strainer tubes and analyzed using a BD Fortessa analyzer. The flow cytometry data was analyzed using the FlowJo Software. […]

For another experiment, the system named is surface HLA-I. As to the kind of experiment: USP7 inhibitor treatment of MKL-1 p53-WT control and p53-KO lines, surface HLA I by flow cytometry. The class given is cell-based, human. Here is the method:
For MCC-301 USP7 inhibitor experiments, two and a half million MCC cells were plated in a T25 flask and incubated with the USP7 inhibitor XL177A and control enantiomer XL177B at 10 μM, 1 μM, 100 nM, and 10 nM. Cells were incubated for 3 to 4 days. Post incubation, one million cells were treated with Versene (Gibco) to dissociate cell clusters. Surface Fc receptors were blocked with 5 μL Human TruStain FcX (Biolegend #422302). Surface HLA-I was stained with 5 μL of Pan HLA-Class I antibody (Clone W6/32, Santa Cruz Biotechnologies) for 30 minutes in dark at 4° C. Cells were washed with PBS and fixed with 4% paraformaldehyde fixation buffer (Biolegend). Cells were analyzed on a BD LSRFortessa. MCC-301 data are representative of 4 independent experiments. To perform statistical analysis, for each cell line, one-way ANOVA was first performed on the MFIs of the DMSO group and all experimental groups. Then, individual Welch t-tests were performed for each concentration, comparing the fold-changes of MFI (inhibitor)/mean MFI (DMSO control) between XL177A and XL177B.
For MKL-1 USP7 inhibitor experiments, p53-WT control lines (WT, scrambled, AAVS1) and three p53-KO lines were treated with USP7 inhibitors and assessed by flow cytometry for surface HLA I as described above for MCC-301.

The next experiment deals with USP7 (Homo sapiens, UniProt Q93009). To be noted: enantiomer control vs XL177A; cited from earlier work.
The test system of the next experiment is autologous T cells. The experiment is described as follows: IFN-γ ELISpot with patient MCC-367 PBMCs. The class given is cell-based, human. The note with it: 10 μg/ml peptide. As for the experimental part:
Matching patient peripheral blood mononuclear cells (PBMCs) from patient MCC-367 were thawed, and 10^7 cells per well were seeded in 24 well plates overnight. Cells were stimulated with 10 μg/ml of the LT antigen peptide […] (identified in the MCC-367 HLA peptidome, FIG. 3F) in complete DMEM supplemented with 10% Human serum and 20 ng/ml IL-7 (PeproTech). After 3 days of stimulation, cells were supplemented with 20 units/mL IL-2 (PeproTech). After 10 days of stimulation, cells were cytokine deprived overnight. 50,000 cells per well were stimulated in an IFN-γ ELISpot assay with 10 μg/ml of the […] peptide. DMSO and an HIV-GAG peptide were used as negative controls. CEF (Mabtech) and PHA (Sigma Aldrich) were used as positive controls (not shown). ELISpot and T cell culture methods were described in detail previously.

The mark [3] stands for this setting: 100 nM, three lines (MCC-277, -290, -301).
The mark [4] stands for this setting: 100 nM, two MCPyV+ lines (MCC-301 and -277).

USP7, sequence (Q93009 whole entry): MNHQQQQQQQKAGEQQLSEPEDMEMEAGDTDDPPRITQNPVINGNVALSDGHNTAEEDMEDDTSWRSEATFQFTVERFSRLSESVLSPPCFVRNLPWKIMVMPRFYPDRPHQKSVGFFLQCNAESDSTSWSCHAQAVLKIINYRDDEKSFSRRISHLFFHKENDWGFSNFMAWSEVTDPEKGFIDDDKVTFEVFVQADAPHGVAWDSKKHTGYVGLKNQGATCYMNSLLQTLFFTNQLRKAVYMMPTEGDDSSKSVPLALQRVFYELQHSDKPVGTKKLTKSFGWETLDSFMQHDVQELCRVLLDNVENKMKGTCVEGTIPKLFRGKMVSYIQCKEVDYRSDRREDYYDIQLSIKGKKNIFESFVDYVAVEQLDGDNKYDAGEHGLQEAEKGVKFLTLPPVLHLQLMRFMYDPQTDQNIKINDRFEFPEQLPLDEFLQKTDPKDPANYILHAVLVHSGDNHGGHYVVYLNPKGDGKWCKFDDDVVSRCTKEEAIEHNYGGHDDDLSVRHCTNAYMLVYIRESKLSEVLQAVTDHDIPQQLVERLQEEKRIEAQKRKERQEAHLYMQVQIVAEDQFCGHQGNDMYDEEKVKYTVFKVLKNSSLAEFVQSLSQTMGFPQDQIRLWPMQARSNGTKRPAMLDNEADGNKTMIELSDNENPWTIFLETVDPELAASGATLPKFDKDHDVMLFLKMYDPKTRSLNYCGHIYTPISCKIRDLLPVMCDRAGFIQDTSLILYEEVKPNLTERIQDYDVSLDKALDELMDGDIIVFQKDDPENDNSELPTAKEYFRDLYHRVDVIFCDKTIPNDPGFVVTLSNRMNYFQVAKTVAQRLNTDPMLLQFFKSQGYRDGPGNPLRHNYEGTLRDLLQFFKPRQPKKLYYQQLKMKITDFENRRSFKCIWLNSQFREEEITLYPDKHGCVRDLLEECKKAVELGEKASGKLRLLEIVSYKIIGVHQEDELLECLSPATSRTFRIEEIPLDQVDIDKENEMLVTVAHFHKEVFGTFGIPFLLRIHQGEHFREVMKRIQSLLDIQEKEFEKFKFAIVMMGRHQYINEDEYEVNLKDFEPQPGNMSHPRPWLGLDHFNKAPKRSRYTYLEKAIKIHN

As to `CN1CCN(CCC(=O)Nc2ccc3c(=O)n(CC4(O)CCN(C(=O)[C@@H](CCCNC(=O)c5ccc6c(Cl)c7c(nc6c5)CCCC7)Cc5ccccc5)CC4)cnc3c2)CC1` [XL177A], in experiment [1], the “abundance of displayed HLA-I peptides compared to XL177B and untreated cells” value was “higher abundances of displayed peptides”; the “frequency of peptides displayed on each respective HLA-I gene (HLA-A, -B, -C)” value is given as “did not affect”. The “percent of significantly differing peptides more abundant compared to untreated cells” value in experiment [1] (out of 282 peptides) stood at 95.7%. Besides, in experiment [1] (out of 282 peptides whose abundance significantly differed (P<0.05)), the “number of peptides more abundant compared to untreated cells” value stood at 270 peptides. Also, in the experiment on surface HLA class I (setting [3]), the “mean fold increase in expression of surface HLA class I relative to DMSO” value is reported as 1.89 fold and the “range of fold increase in expression of surface HLA class I relative to DMSO” value is listed as 1.60-2.27 fold. In addition, in the experiment with surface HLA class I (setting [4]), the “mean fold increase in expression of surface HLA-I relative to DMSO” value was determined as 2.0 fold and the “range of fold increase in expression of surface HLA-I relative to DMSO” value is recorded as 1.78-2.27 fold. In addition, in the experiment on surface HLA class I (MCC-290 (MCPyV−)), the “increase in HLA-I levels in MCC-290” value is given as “more modest increase”. For the same compound, in the experiment on surface HLA class I (MCC-320 (MCPyV−)), the “increase in HLA I expression in MCC-320” value is “did not exhibit a statistically significant increase and not”. Also, in experiment [2], the cell cycle shift result is recorded as “slight cell cycle shifts from S to G1 phase”. The “surface HLA-I relative to XL177B and DMSO” value in the experiment on surface HLA-I (MKL-1 TP53-KO lines) is “increased”. In addition, the “surface HLA-I relative to XL177B and DMSO” value with surface HLA-I (MKL-1 TP53-WT lines) is listed as “increased”.

On to `CN1CCN(CCC(=O)Nc2ccc3c(=O)n(CC4(O)CCN(C(=O)[C@H](CCCNC(=O)c5ccc6c(Cl)c7c(nc6c5)CCCC7)Cc5ccccc5)CC4)cnc3c2)CC1` [XL177B], for which the “potency relative to XL177A (fold less potent)” value at USP7 is listed as 500 fold.

Regarding “TSDKAIELY [peptide derived from the OBD domain of MCPyV LT, detected in the MCC-367 HLA peptidome]”, the “reactivity of autologous T cells by ELISpot” value with autologous T cells is “confirmed”.
